Source: US20250296953A1, “3,4-THIAZOLO-STEROIDS AND METHODS OF MAKING AND USING THE SAME” (Arkansas State University - Jonesboro, priority 2018, published 2025)
Read-outs that look alike come from different tables or passages of the source.

What was measured:
[1] = tested on: 60 different human tumor cell lines
gliosarcoma (SF-539) = assay: NCI 60 five dose screen; conditions: SF-539 (CNS Cancer), five dose
SR = assay: NCI 60 five dose screen; conditions: SR (Leukemia), five dose
[2] = 786-0 (Renal Cancer), five dose
[3] = A549/ATCC (Non-small Cell Lung Cancer), five dose
[4] = BT-549 (Breast Cancer), five dose
[5] = CAKI-1 (Renal Cancer), five dose
[6] = COLO 205 (Colon Cancer), five dose
[7] = DU-145 (Prostate Cancer), five dose
[8] = EKVX (Non-small Cell Lung Cancer), five dose
[9] = HCC-2998 (Colon Cancer), five dose
[10] = HCT-15 (Colon Cancer), five dose
[11] = HL-60(TB) (Leukemia), five dose
[12] = HOP-62 (Non-small Cell Lung Cancer), five dose
[13] = HOP-92 (Non-small Cell Lung Cancer), five dose
[14] = HS 578T (Breast Cancer), five dose
[15] = IGROV1 (Ovarian Cancer), five dose
[16] = MCF7 (Breast Cancer), five dose
[17] = MDA-MB-435 (Melanoma), five dose
[18] = MDA-MB-468 (Breast Cancer), five dose
[19] = NCI-H23 (Non-small Cell Lung Cancer), five dose
[20] = NCI-H226 (Non-small Cell Lung Cancer), five dose
[21] = NCI-H322M (Non-small Cell Lung Cancer), five dose
[22] = NCI-H460 (Non-small Cell Lung Cancer), five dose
[23] = NCI-H522 (Non-small Cell Lung Cancer), five dose
[24] = NCI/ADR-RES (Ovarian Cancer), five dose
[25] = OVCAR-3 (Ovarian Cancer), five dose
[26] = OVCAR-5 (Ovarian Cancer), five dose
[27] = OVCAR-8 (Ovarian Cancer), five dose
[28] = PC-3 (Prostate Cancer), five dose
[29] = RXF 393 (Renal Cancer), five dose
[30] = SK-MEL-28 (Melanoma), five dose
[31] = SK-OV-3 (Ovarian Cancer), five dose
[32] = SN12C (Renal Cancer), five dose
[33] = SW-620 (Colon Cancer), five dose
[34] = T-47D (Breast Cancer), five dose
[35] = TK-10 (Renal Cancer), five dose
[36] = UO-31 (Renal Cancer), five dose

C[C@]12CCc3nc(Nc4ccc(O)cc4)sc3C1=CC[C@@H]1[C@@H]2CC[C@]2(C)C(=O)CC[C@@H]12 [IIa.35]
CC50 [1]: > 100 µM | GI50 [1, 2]: 1.8 µM | TGI [1, 2]: 3.82 | GI50 ([1]; A498 (Renal Cancer), five dose): 14.2 µM | TGI ([1]; A498 (Renal Cancer), five dose): 8.06E−5 | GI50 [1, 3]: 4.42 µM | TGI [1, 3]: >1.00E−4 | GI50 ([1]; ACHN (Renal Cancer), five dose): 2.92 µM | TGI ([1]; ACHN (Renal Cancer), five dose): 9.29E−6 | GI50 [1, 4]: 3.13 µM | TGI [1, 4]: >1.00E−4 | GI50 [1, 5]: 1.93 µM | TGI [1, 5]: 3.97E−6 | GI50 ([1]; CCRF-CEM (Leukemia), five dose): 2.47 µM | TGI ([1]; CCRF-CEM (Leukemia), five dose): >1.00E−4 | GI50 [1, 6]: 2 µM | TGI [1, 6]: 3.90E−6 | GI50 [1, 7]: 1.66 µM | TGI [1, 7]: 3.14E−6 | GI50 [1, 8]: 10.4 µM | TGI [1, 8]: 4.00E−4 | GI50 [1, 9]: 4.11 µM | TGI [1, 9]: >1.00E−4 | GI50 [1, 10]: 1.66 µM | TGI [1, 10]: 4.40E−6 | GI50 ([1]; HCT-116 (Colon Cancer), five dose): 1.9 µM | GI50 [1, 11]: 2.57 µM | TGI [1, 11]: 7.27E−6 | GI50 [1, 12]: 3.28 µM | TGI [1, 12]: 1.26E−5 | GI50 [1, 13]: 2.39 µM | TGI [1, 13]: 5.65E−6 | GI50 [1, 14]: 3.38 µM | TGI [1, 14]: >1.00E−4 | GI50 ([1]; HT29 (Colon Cancer), five dose): 2.13 µM | TGI ([1]; HT29 (Colon Cancer), five dose): 5.59E−6 | GI50 [1, 15]: 1.99 µM | TGI [1, 15]: 5.02E−6 | GI50 ([1]; K-562 (Leukemia), five dose): 2.96 µM | TGI ([1]; K-562 (Leukemia), five dose): >1.00E−4 | GI50 ([1]; KM12 (Colon Cancer), five dose): 1.93 µM | TGI ([1]; KM12 (Colon Cancer), five dose): 4.06E−6 | GI50 ([1]; LOX IMVI (Melanoma), five dose): 1.58 µM | TGI ([1]; LOX IMVI (Melanoma), five dose): 3.04E−6 | GI50 ([1]; M14 (Melanoma), five dose): 2.68 µM | GI50 ([1]; MALME-3M (Melanoma), five dose): 1.81 µM | TGI ([1]; MALME-3M (Melanoma), five dose): 4.03E−6 | GI50 [1, 16]: 1.66 µM | TGI [1, 16]: 4.26E−6 | GI50 ([1]; MDA-MB-231/ATCC (Breast Cancer), five dose): 3.22 µM | GI50 [1, 17]: 2.08 µM | TGI [1, 17]: 5.32E−6 | GI50 [1, 18]: 2.17 µM | TGI [1, 18]: 5.80E−6 | GI50 ([1]; MOLT-4 (Leukemia), five dose): 2.38 µM | TGI ([1]; MOLT-4 (Leukemia), five dose): >1.00E−4 | GI50 [1, 19]: 3.96 µM | TGI [1, 19]: >1.00E−4 | GI50 [1, 20]: 2.86 µM | TGI [1, 20]: 8.52E−6 | GI50 [1, 21]: 6.4 µM | TGI [1, 21]: >1.00E−4 | GI50 [1, 22]: 3.01 µM | TGI [1, 22]: 1.05E−5 | GI50 [1, 23]: 1.42 µM | TGI [1, 23]: 2.96E−6 | GI50 [1, 24]: 3.27 µM | TGI [1, 24]: >1.00E−4 | GI50 [1, 25]: 1.71 µM | TGI [1, 25]: 3.38E−6 | GI50 ([1]; OVCAR-4 (Ovarian Cancer), five dose): 2.03 µM | GI50 [1, 26]: 3.91 µM | TGI [1, 26]: >1.00E−4 | GI50 [1, 27]: 3.22 µM | TGI [1, 27]: >1.00E−4 | GI50 [1, 28]: 2.49 µM | TGI [1, 28]: 8.15E−6 | GI50 [1, 29]: 1.78 µM | TGI [1, 29]: 4.14E−6 | GI50 ([1]; SF-268 (CNS Cancer), five dose): 3.37 µM | TGI ([1]; SF-268 (CNS Cancer), five dose): 4.00E−4 | GI50 ([1]; SK-MEL-2 (Melanoma), five dose): 6.98 µM | TGI ([1]; SK-MEL-2 (Melanoma), five dose): >1.00E−4 | GI50 ([1]; SK-MEL-5 (Melanoma), five dose): 4.33 µM | TGI ([1]; SK-MEL-5 (Melanoma), five dose): 3.19E−5 | GI50 [1, 30]: 2.08 µM | TGI [1, 30]: 4.75E−6 | GI50 [1, 31]: 12.3 µM | TGI [1, 31]: >1.00E−4 | GI50 [1, 32]: 2.91 µM | TGI [1, 32]: >1.00E−4 | GI50 ([1]; SNB-19 (CNS Cancer), five dose): 10.9 µM | TGI ([1]; SNB-19 (CNS Cancer), five dose): >1.00E−4 | GI50 ([1]; SNB-75 (CNS Cancer), five dose): 2.76 µM | TGI ([1]; SNB-75 (CNS Cancer), five dose): >1.00E−4 | GI50 [1, 33]: 2.08 µM | TGI [1, 33]: 4.73E−6 | GI50 [1, 34]: 1.95 µM | TGI [1, 34]: 5.03E−6 | GI50 [1, 35]: 2.01 µM | TGI [1, 35]: 4.40E−6 | GI50 ([1]; U251 (CNS Cancer), five dose): 3.06 µM | TGI ([1]; U251 (CNS Cancer), five dose): 2.19E−5 | GI50 ([1]; UACC-62 (Melanoma), five dose): 1.76 µM | TGI ([1]; UACC-62 (Melanoma), five dose): 4.02E−6 | GI50 ([1]; UACC-257 (Melanoma), five dose): 1.86 µM | TGI ([1]; UACC-257 (Melanoma), five dose): 4.62E−6 | GI50 [1, 36]: 1.54 µM | TGI [1, 36]: 2.90E−6 | CC50 ([1]; read-out: LC50, A498 (Renal Cancer), five dose): > 100 µM | CC50 ([1]; read-out: LC50, A549/ATCC (Non-small Cell Lung Cancer), five dose): > 100 µM | CC50 ([1]; read-out: LC50, ACHN (Renal Cancer), five dose): 36.6 µM | CC50 ([1]; read-out: LC50, BT-549 (Breast Cancer), five dose): > 100 µM | CC50 ([1]; read-out: LC50, CCRF-CEM (Leukemia), five dose): > 100 µM | CC50 ([1]; read-out: LC50, COLO 205 (Colon Cancer), five dose): 7.61 µM | CC50 ([1]; read-out: LC50, EKVX (Non-small Cell Lung Cancer), five dose): > 100 µM | CC50 ([1]; read-out: LC50, HCC-2998 (Colon Cancer), five dose): > 100 µM | CC50 ([1]; read-out: LC50, HCT-15 (Colon Cancer), five dose): > 100 µM | CC50 ([1]; read-out: LC50, HL-60(TB) (Leukemia), five dose): > 100 µM | CC50 ([1]; read-out: LC50, HOP-62 (Non-small Cell Lung Cancer), five dose): > 100 µM | CC50 ([1]; read-out: LC50, HOP-92 (Non-small Cell Lung Cancer), five dose): > 100 µM | CC50 ([1]; read-out: LC50, HT29 (Colon Cancer), five dose): > 100 µM | CC50 ([1]; read-out: LC50, IGROV1 (Ovarian Cancer), five dose): > 100 µM | CC50 ([1]; read-out: LC50, K-562 (Leukemia), five dose): > 100 µM | CC50 ([1]; read-out: LC50, M14 (Melanoma), five dose): > 100 µM | CC50 ([1]; read-out: LC50, MALME-3M (Melanoma), five dose): 8.96 µM | CC50 ([1]; read-out: LC50, MCF7 (Breast Cancer), five dose): > 100 µM | CC50 ([1]; read-out: LC50, MDA-MB-231/ATCC (Breast Cancer), five dose): > 100 µM | CC50 ([1]; read-out: LC50, MDA-MB-435 (Melanoma), five dose): > 100 µM | CC50 ([1]; read-out: LC50, MDA-MB-468 (Breast Cancer), five dose): > 100 µM | CC50 ([1]; read-out: LC50, MOLT-4 (Leukemia), five dose): > 100 µM | CC50 ([1]; read-out: LC50, NCI-H23 (Non-small Cell Lung Cancer), five dose): > 100 µM | CC50 ([1]; read-out: LC50, NCI-H226 (Non-small Cell Lung Cancer), five dose): > 100 µM | CC50 ([1]; read-out: LC50, NCI-H460 (Non-small Cell Lung Cancer), five dose): > 100 µM | CC50 ([1]; read-out: LC50, NCI-H522 (Non-small Cell Lung Cancer), five dose): 6.18 µM | CC50 ([1]; read-out: LC50, NCI/ADR-RES (Ovarian Cancer), five dose): > 100 µM | CC50 ([1]; read-out: LC50, OVCAR-3 (Ovarian Cancer), five dose): 6.7 µM | CC50 ([1]; read-out: LC50, OVCAR-4 (Ovarian Cancer), five dose): > 100 µM | CC50 ([1]; read-out: LC50, OVCAR-5 (Ovarian Cancer), five dose): > 100 µM | CC50 ([1]; read-out: LC50, OVCAR-8 (Ovarian Cancer), five dose): > 100 µM | CC50 ([1]; read-out: LC50, PC-3 (Prostate Cancer), five dose): > 100 µM | CC50 ([1]; read-out: LC50, SF-268 (CNS Cancer), five dose): > 100 µM | CC50 ([1]; read-out: LC50, SK-MEL-2 (Melanoma), five dose): > 100 µM | CC50 ([1]; read-out: LC50, SK-MEL-5 (Melanoma), five dose): > 100 µM | CC50 ([1]; read-out: LC50, SK-MEL-28 (Melanoma), five dose): > 100 µM | CC50 ([1]; read-out: LC50, SK-OV-3 (Ovarian Cancer), five dose): > 100 µM | CC50 ([1]; read-out: LC50, SN12C (Renal Cancer), five dose): > 100 µM | CC50 ([1]; read-out: LC50, SNB-19 (CNS Cancer), five dose): > 100 µM | CC50 ([1]; read-out: LC50, SNB-75 (CNS Cancer), five dose): > 100 µM | CC50 ([1]; read-out: LC50, SW-620 (Colon Cancer), five dose): > 100 µM | CC50 ([1]; read-out: LC50, T-47D (Breast Cancer), five dose): > 100 µM | CC50 ([1]; read-out: LC50, TK-10 (Renal Cancer), five dose): 9.6 µM | CC50 ([1]; read-out: LC50, U251 (CNS Cancer), five dose): > 100 µM | CC50 ([1]; read-out: LC50, UACC-62 (Melanoma), five dose): 9.19 µM | CC50 ([1]; read-out: LC50, UACC-257 (Melanoma), five dose): > 100 µM | CC50 ([1]; read-out: LC50, UO-31 (Renal Cancer), five dose): 9.49 µM | GI50 (gliosarcoma (SF-539)): 1.76 µM | TGI (gliosarcoma (SF-539)): 3.59E−6 | CC50 (gliosarcoma (SF-539); read-out: LC50): 7.34 µM | GI50 (SR): 2.72 µM | TGI (SR): >1.00E−4 | CC50 (SR; read-out: LC50): > 100 µM
